Data on two compounds can be found in PMC12577307, “Genetically encoded biosensor enabled mining, characterisation and engineering of aromatic acid MFS transporters” (Journal of Biological Engineering, 2025).

The test system of one test is T1, TphKS.Hor.
T1 construct: gene tphK; full-length transporter expressed in Pseudomonas putida KT2440 with TphR-sfGFP reporter plasmid
The experiment in a line: uptake-coupled TphR-sfGFP biosensor dose response in P. putida KT2440. The test is classed as cell-based, Saccharopolyspora hordei. The note with it: whole-cell transporter-biosensor EC50 (reflects transporter plus TphR sensor); LB, 16 h, 0.005-1 mM TPA. An excerpt: uptake-coupled TphR-sfGFP biosensor dose response in P. putida KT2440 on TphKS.Hor

A further test concerns T2, TphKP.Um.
T2 construct: gene tphK; full-length transporter expressed in Pseudomonas putida KT2440 with TphR-sfGFP reporter plasmid
The description is as above. It is filed as cell-based, Pseudomonas umsongensis. The following applies: whole-cell transporter-biosensor EC50 (reflects transporter plus TphR sensor); LB, 16 h, 0.005-1 mM TPA. An excerpt:
uptake-coupled TphR-sfGFP biosensor dose response in P. putida KT2440 on TphKP.Um

The target of a further test is T3, TphKR.Op (Rhodococcus opacus, UniProt A0A1B1KG70).
T3 construct: gene tpaK; full-length transporter expressed in Pseudomonas putida KT2440 with TphR-sfGFP reporter plasmid
T3 sequence (A0A1B1KG70 1-459): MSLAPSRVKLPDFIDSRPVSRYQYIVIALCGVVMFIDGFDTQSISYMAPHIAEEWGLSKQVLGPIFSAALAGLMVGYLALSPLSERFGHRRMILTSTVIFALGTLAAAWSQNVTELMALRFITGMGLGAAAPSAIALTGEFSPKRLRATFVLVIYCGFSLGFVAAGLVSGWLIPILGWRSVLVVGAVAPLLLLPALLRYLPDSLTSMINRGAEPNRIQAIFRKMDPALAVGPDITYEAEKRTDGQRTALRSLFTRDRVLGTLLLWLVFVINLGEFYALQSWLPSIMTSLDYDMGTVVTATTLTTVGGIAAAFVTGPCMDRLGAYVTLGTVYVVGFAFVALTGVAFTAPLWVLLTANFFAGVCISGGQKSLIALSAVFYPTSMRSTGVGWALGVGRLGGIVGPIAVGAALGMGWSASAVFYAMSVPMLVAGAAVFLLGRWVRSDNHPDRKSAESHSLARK
Described as above. It is filed as cell-based. An excerpt:
uptake-coupled TphR-sfGFP biosensor dose response in P. putida KT2440 on TphKR.Op

A further test has as its system T4, TphKB.Pac.
T4 construct: gene tphK; full-length transporter expressed in Pseudomonas putida KT2440 with TphR-sfGFP reporter plasmid
The description is as above. The note with it: whole-cell transporter-biosensor EC50 (reflects transporter plus TphR sensor); LB, 16 h, 0.005-1 mM TPA. The test is classed as cell-based, Bradyrhizobium pachyrhizi. An excerpt: uptake-coupled TphR-sfGFP biosensor dose response in P. putida KT2440 on TphKB.Pac

Another test has as its target T5, TphKP.Man (Pseudomonas mandelii, UniProt A0A024E7Y9).
T5 construct: gene tpaK; full-length transporter expressed in Pseudomonas putida KT2440 with TphR-sfGFP reporter plasmid
The description is as above. It is filed as cell-based. An excerpt:
uptake-coupled TphR-sfGFP biosensor dose response in P. putida KT2440 on TphKP.Man

The test system of the next test is T6, TphKS.Nap.
T6 construct: gene tphK; full-length transporter expressed in Pseudomonas putida KT2440 with TphR-sfGFP reporter plasmid
Described as above. The test is classed as cell-based, Sphingobium naphthae. The following applies: whole-cell transporter-biosensor EC50 (reflects transporter plus TphR sensor); LB, 16 h, 0.005-1 mM TPA. An excerpt: uptake-coupled TphR-sfGFP biosensor dose response in P. putida KT2440 on TphKS.Nap

In the next test the test system is T7, TphKR.Pyr.
T7 construct: gene tphK; full-length transporter expressed in Pseudomonas putida KT2440 with TphR-sfGFP reporter plasmid
The description is as above. The test is classed as cell-based, Rhodococcus pyridinivorans. The following applies: whole-cell transporter-biosensor EC50 (reflects transporter plus TphR sensor); LB, 16 h, 0.005-1 mM TPA. An excerpt:
uptake-coupled TphR-sfGFP biosensor dose response in P. putida KT2440 on TphKR.Pyr

The subject of a further test is T8, PcaKB.Mas.
T8 construct: gene pcaK; full-length transporter expressed in Pseudomonas putida KT2440 delta-pcaK with PcaV-sfGFP reporter plasmid; 2,3-cleavage pathway operon
The experiment in a line: uptake-coupled PcaV-sfGFP biosensor dose response in P. putida KT2440 delta-pcaK. It is filed as cell-based, Bacillus massiliglaciei. The following applies: whole-cell transporter-biosensor EC50 (reflects transporter plus PcaV sensor); LB, 3 h, 0.01-5 mM PCA. An excerpt:
uptake-coupled PcaV-sfGFP biosensor dose response in P. putida KT2440 delta-pcaK on PcaKB.Mas

The target in another test is T9, PcakA.Ant (Comamonas antarctica, UniProt A0A6N1X255).
T9 construct: gene HUK68_11000; full-length transporter expressed in Pseudomonas putida KT2440 delta-pcaK with PcaV-sfGFP reporter plasmid; 4,5-cleavage pathway operon
T9 sequence (A0A6N1X255 1-458): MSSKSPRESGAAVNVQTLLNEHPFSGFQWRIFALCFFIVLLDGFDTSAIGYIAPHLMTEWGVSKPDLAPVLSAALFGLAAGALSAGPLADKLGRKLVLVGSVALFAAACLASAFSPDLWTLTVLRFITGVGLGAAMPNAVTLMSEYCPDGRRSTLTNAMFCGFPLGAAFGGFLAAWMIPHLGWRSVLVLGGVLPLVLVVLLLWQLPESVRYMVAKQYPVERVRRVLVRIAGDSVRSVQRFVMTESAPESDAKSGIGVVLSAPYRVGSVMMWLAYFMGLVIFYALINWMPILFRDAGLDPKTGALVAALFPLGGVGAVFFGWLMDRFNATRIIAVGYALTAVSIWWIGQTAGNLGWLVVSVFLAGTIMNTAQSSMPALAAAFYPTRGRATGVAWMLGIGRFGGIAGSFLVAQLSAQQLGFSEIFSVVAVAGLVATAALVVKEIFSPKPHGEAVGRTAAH
The test is described as above. It is filed as cell-based. An excerpt: uptake-coupled PcaV-sfGFP biosensor dose response in P. putida KT2440 delta-pcaK on PcakA.Ant

The target in the next test is T10, PcaKP.Put (Pseudomonas putida, UniProt Q51955).
T10 construct: gene pcaK; full-length transporter expressed in Pseudomonas putida KT2440 delta-pcaK with PcaV-sfGFP reporter plasmid
T10 sequence (Q51955 1-448): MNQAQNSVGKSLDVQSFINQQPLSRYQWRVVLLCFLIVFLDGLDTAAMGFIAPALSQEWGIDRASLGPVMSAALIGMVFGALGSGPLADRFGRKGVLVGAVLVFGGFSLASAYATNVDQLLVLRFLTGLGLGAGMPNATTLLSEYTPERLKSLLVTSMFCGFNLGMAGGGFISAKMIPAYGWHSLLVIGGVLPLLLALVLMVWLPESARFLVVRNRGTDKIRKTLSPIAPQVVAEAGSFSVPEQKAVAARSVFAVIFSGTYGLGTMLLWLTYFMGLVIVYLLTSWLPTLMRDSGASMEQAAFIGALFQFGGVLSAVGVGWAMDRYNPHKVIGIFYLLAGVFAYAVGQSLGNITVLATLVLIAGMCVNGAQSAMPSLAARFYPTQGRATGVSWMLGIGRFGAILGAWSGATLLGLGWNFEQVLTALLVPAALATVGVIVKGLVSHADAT
The test is described as above. It is filed as cell-based. An excerpt: uptake-coupled PcaV-sfGFP biosensor dose response in P. putida KT2440 delta-pcaK on PcaKP.Put

The next test deals with T11, PcaKN.Ani (Neisseria animalis, UniProt A0A5P3MSQ9).
T11 construct: gene D0T90_09335; full-length transporter expressed in Pseudomonas putida KT2440 delta-pcaK with PcaV-sfGFP reporter plasmid; 4,5-cleavage pathway operon
T11 sequence (A0A5P3MSQ9 entry or part of it): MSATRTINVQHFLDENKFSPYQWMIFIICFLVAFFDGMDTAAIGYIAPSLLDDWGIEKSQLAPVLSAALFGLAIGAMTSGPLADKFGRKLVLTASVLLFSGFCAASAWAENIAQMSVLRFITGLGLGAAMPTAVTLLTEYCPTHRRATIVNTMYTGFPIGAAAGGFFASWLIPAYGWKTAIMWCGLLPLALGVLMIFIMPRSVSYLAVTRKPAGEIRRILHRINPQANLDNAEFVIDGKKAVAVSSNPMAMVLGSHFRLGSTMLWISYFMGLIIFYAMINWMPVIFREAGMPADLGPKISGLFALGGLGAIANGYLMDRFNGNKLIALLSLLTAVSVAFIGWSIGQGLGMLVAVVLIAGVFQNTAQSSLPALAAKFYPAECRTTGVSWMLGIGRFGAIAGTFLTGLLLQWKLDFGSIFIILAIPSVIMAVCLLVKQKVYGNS
The test is described as above. The test is classed as cell-based. An excerpt: uptake-coupled PcaV-sfGFP biosensor dose response in P. putida KT2440 delta-pcaK on PcaKN.Ani

One may read the EC50 as the concentration giving half of the maximal effect. For `O=C(O)c1ccc(C(=O)O)cc1` [T3, terephthalic acid], the EC50 in the test with TphKS.Hor came out at 39.6 µM; in the test on TphKP.Um it was 19.1 µM; on TphKR.Op, 79.2 µM; in the test with TphKB.Pac, 17.1 µM; at TphKP.Man it was 14.4 µM; with TphKS.Nap, 1.96 µM. Moreover, the EC50 in the test with TphKR.Pyr amounted to 10.7 µM.
On to `O=C(O)c1ccc(O)c(O)c1` [P2, protocatechuic acid], for which the half-maximal effective concentration (EC50) with PcaKB.Mas turned out to be 1710 µM; at PcakA.Ant, 735 µM; at PcaKP.Put, 2050 µM; at PcaKN.Ani, 847 µM.
